≈ marks a conversion by molar mass, not a printed value.
System: human ovarian cancer (IA9) cell line
Assay: Activity against HTCL replication, IA9
Assay type: cell-based
Protocol: Compounds were assayed for in vitro cytotoxicity in a panel of human tumor cell lines at the School of Pharmacy, University of North Carolina at Chapel Hill, according to procedures described previously [Lee, K. H., Lin, Y. M., Wu, T. S., Zhang, D. C., Yamagishi, T., Hayashi, T., Hall, I. H., Chang, J. J., Wu, R. Y., Yang, T. H. The cytotoxic principles of Prunella vulgaris, Psychotria serpens, and Hyptis capitata: Ursolic acid and related derivatives. Planta Med. 1988, 54, 308-11; Boyd, M. R. Status of the National Cancer Institute preclinical antitumor drug discovery screen: implications for selection of new agents for clinical trial. Devita, V. T., Jr. Hellman, S., Rosenberg, S. A., Eds, J. B. Cancer: Principles and Practice of Oncology Update, 1989, 3: pp1-12, Lippincoft: Philadephia; Monks, A., Scudiero, D., Skehan, P., Shoemaker, R., Paull, K., Vistica, D., Hose, C., Langley, J., Cronise, P., Vaigro-Wolff, A., Gray-Goodrich, M., Campbell, H., Mayo, J., Boyd, M. Feasibility of a high-flux anticancer drug screen using a diverse panel of cultured human tumor cell lines. J. Natl. Cancer Inst. 1991, 83, 757-66.] The cell lines included human ovarian cancer (1A9), ileocecal carcinoma (HCT-8), lung carcinoma (A-549), glioblastoma (U-87-MG), bone (HOS), epidermoid carcinoma of the […] (KB), P-gp-expressing epidermoid carcinoma of the nasopharynx (KB-VIN), and melanoma (SKMEL-2) cell line. The cytotoxic effects of each compound were obtained as EC50 values, which represent the molar drug concentrations required to cause 50% inhibition.
Antitumor activity of compounds IX-8 and X-8 was further tested on the following 8 cancer cell lines: CAKI, HOS, KB, KB-VIN, SK-MEL-2, U87-MG, HCT-8 and IA9. […] It is worth mentioning that these two compounds were quite active against human ovarian cancer cells (IA9), which were known to have a high level of drug resistant P-glycoprotein. IC50 of compound IX-8 against these cancer cells is only 0.03 μg/mL. Thus, this compound is really worth developing, particular against drug resistant ovarian cancer.

COc1ccc2[nH]c(-c3cccc(F)c3)c(C(=O)O)c(=O)c2c1 [IX-8, 3′-Fluoro-6-methoxy-2-phenyl-4-quinolone-3-carboxylic acid]
IC50 (Homo sapiens, IA9, as worded in text, read-out: IC50 against human ovarian cancer cells (IA9)): 0.03 µg/mL (≈ 0.0958 µM)
ED50 IA9 (ovarian cancer IA9, mean ED50): 0.03 µg/mL (≈ 0.0958 µM)
